Source: the NIST ThermoML archive (doi:10.1016/j.jct.2016.11.030)
± gives the expanded uncertainty stated by the source.

Assays:
[1] = Crystal; DTA
[2] = Molar enthalpy of transition or fusion; conditions: Crystal; DSC

## COc1cc(CO)ccc1O [4-hydroxy-3-methoxybenzyl alcohol]
[1]
  Normal melting temperature: 116 ± 1.1 °C
[2]
  Molar enthalpy of transition or fusion: 7.35 ± 0.335 kcal/mol
